In patent US20080104718A1, “Transgenic Non-Human Animal Models of Ischemia-Reperfusion Injury and Uses Thereof” (UNIVERSITY OF ROCHESTER, priority 2004, published 2008):

Experiments:
p90RSK = p90RSK in vitro kinase assay on heart lysates of STZ-injected mice; assay type: in vivo, mouse
Protocol: Heart powder was homogenized with 3 vol of lysis buffer and centrifuged at 14,000 g (4° C. for 30 min), and protein concentration were determined. p90RSK was immunoprecipitated through the incubation of 1000 μg protein for each sample with 3 μl of the rabbit polyclonal anti-p90RSK (Santa Cruz, Santa Cruz, Calif.) antibody for 3 hrs, the addition of 40 μl of a 1:1 slurry of protein A/Sepharose beads to the extract/antibody mixture, and then incubation for 1 hour at 4° C. This complex was washed, twice each, in cell lysis buffer described above, LiCl buffer (500 mM LiCl 100 mM Tris-HCl (pH 7.6), 0.1% Triton X-100, 1 mM DTT) and wash buffer (20 mM HEPES, pH 7.2, 2 mM EGTA, 100 μM Na3VO4, 10 mM MgCl2, 1 mM DTT, 0.1% Triton X-100). After the final wash and pelleting, S6 kinase substrate peptide was used to determine p90RSK kinase activity, as previously described (Cavet et al., “14-3-3beta is a p90 Ribosomal S6 Kinase (RSK) Isoform 1-Binding Protein That Negatively Regulates RSK Kinase Activity,” J Biol Chem 278(20):18376-18383 (2003), which is hereby incorporated by reference in its entirety). The in vitro kinase assay was performed according to manufacture's protocol using a long S6 kinase substrate peptide (Upstate) to determine radiolabeled phosphate incorporation by scintillation counter. […]

[1] = Fasting blood glucose in STZ-induced diabetic mice; assay type: in vivo, mouse; conditions: 2 weeks after STZ injection (vehicle 107±8 mg/dl)
Text: After a 6 hrs fast, basal blood samples were colleted from the tip of the tail. All blood samples were immediately measured for glucose using Prestige IQ, Blood Glucose Monitoring System (Home Diagnosis, Inc, Ft. Lauderdale, Fla.).
Previously, it was reported that PKCP activation is critical in H2O2-mediated p90RSK activation. […] Since the critical role of PKCP activation in diabetes has been extensively studied, it was investigated whether p90RSK is activated in Streptozotocin (STZ)-induced hyperglycemic mice. The current study used STZ-induced diabetic mice, a known useful model for the study of diabetes (Aizawa-Abe et al., “Pathophysiological Role of Leptin in Obesity-related Hypertension,” J Clin Invest 105(9):1243-1252 (2000), which is hereby incorporated by reference in its entirety).

PRECE = assay: Relative quantitative RT-PCR of PRECE mRNA in hearts of STZ-injected mice; assay type: in vivo, mouse; conditions: STZ injection, NLC mice, after 2 weeks
Protocol: Total RNA isolation, first-strand cDNA synthesis, and relative quantitative reverse transcription-polyinerase chain reaction (RT-PCR) using Ambion's Competimer technology were performed as we described (Aizawa et al., “Role of Phosphodiesterase 3 in NO/cGMP-Mediated Anti-inflammatory Effects in Vascular Smooth Muscle Cells,” Circ Res 93(5):406-413 (2003), which is hereby incorporated by reference in its entirety). Ambion's competimer technology allows one to modulate the amplification of 18S rRNA in the same linear range as the RNAs under study when amplified under the same condition. The following primers were used for PCR analysis: […]

H9c2 cells = assay: Anoxia/reoxygenation (A/R)-induced apoptosis in transfected H9c2 cells (TUNEL); assay type: cell-based, rat
Text: Ad.LacZ (LACZ gene in an adenoviral vector) and Ad.DN-RSK were transduced into neonatal rat cardiomyocytes at varying MOI, as shown in FIG. 1. There was a concentration-dependent expression of DN-RSK (Fire 1) with expression greater than endogenous RSK at 100 MOI. WT-RSK, WT-NHE1, and NHE S703A cDNAs were inserted into pLL3.7-IRES-EGFP to make a pLL3.7-WT-RSK-IRES-EGFP expression vector. These vectors were transfected into H9c2 rat embryonic myoblasts using lipofectamine 2000 (Invitrogen, Carlsbad, Calif.). Cells were cultured for 24 hr to allow sufficient protein expression, then cells were exposed to anoxia. Cells were placed for 12 hr in the anoxia chamber (5% CO2 and 95% N2) and after 24 hr, reoxygenation was performed by changing the medium and placing cells in an air incubator (5% CO2 and 95% air). After 24 hr cell death was detected by TUNEL and by cell death detection ELISA kit (Roche Applied Sciences, Indianapolis, Ind.). Only transfected cells identified by EGFP expression were counted to compare the effects of vector alone (pLL3.7-IRES-EGFP) vs. WT-RSK, WT-NHE1 and MHE1-S703A (pLL3.7-WT-RSK-IRES-EGFP, pLL3.7-WT-NHE1-IRES-EGFP and pLL3.7-NHE1-S703A-IRES-EGFP).

NHE1 [2] = target: T1, NHE1 (Rattus norvegicus, UniProt P26431); assay: NHE1 activity (rate of pHi recovery after acid load, BCECF-AM) in neonatal rat cardiomyocytes; assay type: cell-based; conditions: 100 μM H2O2
T1 construct: Primary cultures of cardiac myocytes were prepared from ventricles of 1 to 3-day-old neonatal Wistar rats; endogenous in cells; host or cells: primary neonatal Wistar rat ventricular cardiomyocytes, transduced with Ad.LacZ or Ad.DN-RSK; NHE1 itself not transfected
Protocol: Primary cultures of cardiac myocytes were prepared from ventricles of 1 to 3-day-old neonatal Wistar rats (Akimoto et al., “Heparin and Heparin Sulfate Block Angiotensin II-Induced Hypertrophy in Cultured Neonatal Rat Cardiomyocytes. A possible Role of Intrinsic Heparin-Like Molecules in Regulation of Cardiomyocyte Hypertrophy,” Circulation 93:810-816 (1996), which is hereby incorporated by reference in its entirety). Briefly, cells were dissociated by collagenase II (Worthington Biochem, NJ) from the ventricles and plated at a density of 1×10^5 cells/cm^2 on 25 mm collagen-coated coverslips in Dulbecco's modified Eagle's medium (DMEM) with 10% fetal bovine serum and 10% horse serum. After 6 hrs of plating the isolated cardiomyocytes, 10 μM cytosine arabinoside (Ara C) was added and the cells were cultured 24 hrs, after which the culture medium was changed to DMEM with 10 μM Ara C in 10% fetal bovine serum.
Isolated neonatal cardiomyocytes were cultured on 25 mm glass coverslips. The intracellular pH indicator BCECF-AM was incubated with DMEM without FBS for 30 min at 37° C. (Ozkan et al., “A Rapid Method for Measuring Intracellular pH Using BCECF-AM,” Biochem Biophys Acta 1572: 143-148 (2002), which is hereby incorporated by reference in its entirety). […] BCECF-AM was excited at 490 and 440 nm, and the emission fluorescence recorded at 500 nm. […]

[3] = tested on: isolated heart from WT-p90RSK-Tg mice and non-transgenic littermate control (NLC) mice; assay: Cardiac damage: CK and LDH release from the isolated heart after ischemia/reperfusion; set-up: species or system mouse; conditions: captopril 50 μM pretreatment
Protocol: Creatine kinase (CK) and lactate dehydrogenase (LDH) were measured by the University of Rochester, Department of Clinical Chemistry, and reported in clinical indices (units/L) as means ±S.D.
For isolated heart from WT-p90RSK-Tg mice and non-transgenic littermate control (NLC) mice were studied using Langendorff preparation. Animals were anaesthetized with ketamine (50 mg/kg) and xylazine (2.5 mg/kg), i.p., and heparinized (5000 U/kg), i.p., to protect the heart against microthrombi. The chest was opened at the sternum and the heart, after cannulation with a 23 G phalanged stainless steel cannula, quickly removed. The heart was retrogradely perfused through the aorta in a non-circulating Langendorff apparatus with KH buffer (118 mM NaCl, 4.7 mM KCl, 1.2 mM MgSO4, 1.2 mM KH2PO4, 2.5 mM CaCl2, 25 mM NaHCO3, 0.5 mM Na-EDTA and 11 mM glucose) at a constant pressure of 80 mmHg. The buffer was saturated with 95% O2/5% CO2 (v/v, pH 7.4, 37° C.) for 50 min. A homemade water-filled balloon was inserted into the left ventricle through the left atrium and was adjusted to a left ventricular end-diastolic pressure of 5 mmHg during initial equilibration. The distal end of the catheter was connected to an ETH-200 Bridge Amplifier (CB Sciences, Inc) and PowerLab/200 (AD Instruments) data acquisition system via a pressure transducer (DELTRAN II, Utah Medical Products, Inc., Midvale, Utah). […]

NHE1 [4] = target: NHE1 (Homo sapiens, UniProt P19634); conditions: cited from earlier work; for mortality in patients experiencing myocardial infarction: clinical trials GUARDIAN and ESCAMI
Sequence of NHE1 (Homo sapiens, UniProt P19634) (P19634 whole entry): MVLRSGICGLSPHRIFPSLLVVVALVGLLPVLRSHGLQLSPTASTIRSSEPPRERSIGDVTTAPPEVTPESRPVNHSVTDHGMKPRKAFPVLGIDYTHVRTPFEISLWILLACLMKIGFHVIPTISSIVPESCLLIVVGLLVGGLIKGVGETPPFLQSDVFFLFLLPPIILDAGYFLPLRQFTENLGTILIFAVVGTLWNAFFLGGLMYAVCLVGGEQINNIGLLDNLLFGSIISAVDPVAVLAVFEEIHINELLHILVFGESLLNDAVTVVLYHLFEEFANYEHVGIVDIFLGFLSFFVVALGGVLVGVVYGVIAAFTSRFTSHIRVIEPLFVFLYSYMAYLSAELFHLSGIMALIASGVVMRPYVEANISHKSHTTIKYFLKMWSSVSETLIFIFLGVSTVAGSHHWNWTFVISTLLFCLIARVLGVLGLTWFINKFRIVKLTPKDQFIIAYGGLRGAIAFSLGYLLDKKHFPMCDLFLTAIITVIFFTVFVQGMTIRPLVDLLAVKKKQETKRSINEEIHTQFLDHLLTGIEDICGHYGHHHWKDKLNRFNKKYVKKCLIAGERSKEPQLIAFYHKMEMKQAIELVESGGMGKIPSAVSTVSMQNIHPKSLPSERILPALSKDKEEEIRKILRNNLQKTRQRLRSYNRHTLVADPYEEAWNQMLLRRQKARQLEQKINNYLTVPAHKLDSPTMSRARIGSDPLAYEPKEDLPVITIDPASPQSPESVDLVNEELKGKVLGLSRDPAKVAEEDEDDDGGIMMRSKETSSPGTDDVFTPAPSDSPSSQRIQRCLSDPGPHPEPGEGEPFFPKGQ

T1 sequence (P26431 whole entry): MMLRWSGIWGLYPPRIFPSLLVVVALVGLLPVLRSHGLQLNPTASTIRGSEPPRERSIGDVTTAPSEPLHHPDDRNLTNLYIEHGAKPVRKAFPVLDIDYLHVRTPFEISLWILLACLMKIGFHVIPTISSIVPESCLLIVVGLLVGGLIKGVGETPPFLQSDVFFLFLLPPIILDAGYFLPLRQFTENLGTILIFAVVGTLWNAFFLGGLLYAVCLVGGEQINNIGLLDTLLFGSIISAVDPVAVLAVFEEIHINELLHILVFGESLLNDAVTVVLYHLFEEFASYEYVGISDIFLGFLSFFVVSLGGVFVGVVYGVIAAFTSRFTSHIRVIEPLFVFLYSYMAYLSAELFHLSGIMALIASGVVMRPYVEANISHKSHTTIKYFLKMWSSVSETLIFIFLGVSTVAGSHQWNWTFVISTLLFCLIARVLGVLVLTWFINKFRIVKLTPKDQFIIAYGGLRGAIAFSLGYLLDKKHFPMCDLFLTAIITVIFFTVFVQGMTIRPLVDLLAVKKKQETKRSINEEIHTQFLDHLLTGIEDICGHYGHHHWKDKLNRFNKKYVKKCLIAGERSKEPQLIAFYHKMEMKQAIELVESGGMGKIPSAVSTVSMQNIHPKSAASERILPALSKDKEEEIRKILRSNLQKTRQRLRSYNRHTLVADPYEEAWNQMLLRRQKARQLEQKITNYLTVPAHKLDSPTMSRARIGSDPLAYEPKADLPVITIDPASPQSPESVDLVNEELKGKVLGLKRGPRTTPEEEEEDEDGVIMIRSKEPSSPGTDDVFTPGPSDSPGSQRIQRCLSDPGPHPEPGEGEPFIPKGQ

CN(N=O)C(=O)N[C@H]1C(O)O[C@H](CO)[C@@H](O)[C@@H]1O (mixture of isomers) [STZ, Streptozotocin]
p90RSK activation (in vitro kinase assay) (p90RSK; DN-p90RSK-Tg mice + STZ): 8009±797 cpm
p90RSK activation (in vitro kinase assay) (p90RSK; NLC mice + STZ): 12991±1810 cpm
fasting blood glucose level [1]: 224 ± 5 mg/dL
PRECE mRNA expression in heart (PRECE): increased

CCN(c1nc(N)c(C(=O)NC(=N)N)nc1Cl)C(C)C [EIPA]
apoptosis (H9c2 cells; A/R + NHE-WT transfected H9c2 cells + EIPA): 39±4%
apoptosis (H9c2 cells; EIPA 5 μM + A/R (12 hr/24 hr) + WT-RSK transfected H9c2 cells): 29.9±5.2%

OO [H2O2]
increase of NHE1 activity (NHE1 [2]; LacZ expressing cardiomyocytes): 3 fold
NHE1 activity (NHE1 [2]; LacZ expressing cardiomyocytes (basal 0.16±0.02)): 0.49±0.13 pHi/min

C[C@H](CS)C(=O)N1CCC[C@H]1C(=O)O [captopril]
release of CK and LDH ([3]; NLC hearts, 40 min global ischemia and 25 min reperfusion): no beneficial effect
release of cardiac enzymes (CK and LDH) ([3]; WT-p90RSK-Tg hearts, 20 min ischemia and 25 min reperfusion): significantly reduced

CC(C)c1ccc(C(=O)NC(=N)N)cc1S(C)(=O)=O [cariporide]
mortality in patients experiencing myocardial infarction (NHE1 [4]): no significant reduction in mortality
improvement in LV function (NHE1 [4]; subgroup of patients who underwent coronary artery bypass grafting): 25%

Cc1cc(-n2cccc2)c(S(C)(=O)=O)cc1C(=O)NC(=N)N [eniporide]
mortality in patients experiencing myocardial infarction (NHE1 [4]): no significant reduction in mortality
